Measured values from patent publication US20120095030A1, “METHODS AND KITS TO PREDICT THERAPEUTIC OUTCOME OF TYROSINE KINASE INHIBITORS” (THE TRANSLATIONAL GENOMICS RESEARCH INSTITUTE, priority 2009, published 2012).
Read-outs that look alike come from different tables or passages of the source.

Tests used:
Format in all cases: cell-based
H358 NSCLC cell line = test: AlamarBlue proliferation assay, H358; conditions: Homo sapiens
Experimental: (§1) Cytotoxicity is measured using fluorescence spectrophotometry.
(§2) TKI sensitivity was determined in NSCLC cell lines. Vandetanib and sunitinib sensitivity was measured in seven NSCLC cell lines. Erlotinib sensitivity was measured in nine NSCLC cell lines. An AlamarBlue proliferation assay at 72 hours was used to measure TKI sensitivity. GraphPad Prism 4.01 was used to determine IC50 values. Expression of seven miRNAs was measured by qRT-PCR. qRT-PCR data were normalized to the reference RNU6 and fold changes were computed against the selected sensitive cell line for each drug. A two-sided z-test was used to compute the p-values for the fold changes. A score was calculated for each miRNA/drug combination to see whether a miRNA can determine resistance across cell lines. Fold changes were first ternarized and assigned a value of +1, −1, or 0. Elevated miRNA expression relative to control (fold change>1 AND p-value<0.05) was assigned a value of +1. Reduced miRNA expression relative to control (fold change<1 AND p-value<0.05) was assigned a value of −1. Any non-significant fold change (p-value>0.05) was assigned a value of 0. These values were then multiplied by a value of +1 or −1 as assigned by the resistance characteristics of the cell line: Resistant cell lines were assigned a value=+1. Sensitive cell lines were assigned a value=−1. The final score was computed by the sum of the points for the cells lines divided by the number of cell lines (the reference cell line was not used in computing the scores).

A549 NSCLC cell line = test: AlamarBlue proliferation assay, A549; conditions: Homo sapiens
Experimental: as §1, §2

H520 NSCLC cell line = test: AlamarBlue proliferation assay, H520; conditions: Homo sapiens
Experimental: as §1, §2

HCC827 NSCLC cell line = test: AlamarBlue proliferation assay, HCC827; conditions: Homo sapiens, 72 hours
Experimental: One method of measuring IC50 by AlamarBlue proliferation that may be used in determining an IC50 is as follows:
(§4) Cells in the log phase of expansion are harvested and counted. The cells are then adjusted to a density of 1×10^4 cells/ml, though the optimum cell density may vary between cell types. […] The AlamarBlue® reagent is mixed, and then aseptically added to the cells in an amount around 10% of the well volume. Cells are incubated in the presence of the reagent from 4-8 hours. Cytotoxicity is measured using fluorescence spectrophotometry. Absorbance is measured at 570 nm and 600 nm blanked in a plate containing medium only. To calculate the percent difference in reduction between treated and control cells in Percentage difference between treated and control cells
(§5) TKI sensitivity was determined in NSCLC cell lines. […] An AlamarBlue proliferation assay at 72 hours was used to measure TKI sensitivity. GraphPad Prism 4.01 was used to determine IC50 values.

H2122 NSCLC cell line = test: AlamarBlue proliferation assay, H2122; conditions: Homo sapiens
Experimental: as §1, §2

[1] = test system: NSCLC cell lines classified as resistant; test: AlamarBlue proliferation assay, NSCLC lines classified as resistant; conditions: read-out: IC50s of the remaining lines classified as resistant
Experimental: as §4, §5

H460 NSCLC cell line = test: AlamarBlue proliferation assay, H460; conditions: Homo sapiens
Experimental: as §1, §2

H1703 NSCLC cell line = test: AlamarBlue proliferation assay, H1703; conditions: Homo sapiens
Experimental: as §1, §2

HCC4006 NSCLC cell line = test: AlamarBlue proliferation assay, HCC4006; conditions: Homo sapiens, 72 hours
Experimental: as §1
as §2, with “The final score was computed by the sum of the points for the cells lines divided by the number of cell lines (the reference cell line was not used in computing the scores).” left out

H2073 NSCLC cell line = test: AlamarBlue proliferation assay, H2073; conditions: NCI-H2073, 72 hours
Experimental: as §1
as §2, with “The final score was computed by the sum of the points for the cells lines divided by the number of cell lines (the reference cell line was not used in computing the scores).” left out

[2] = test system: H1703 Sunitinib resistant line B (H1703 SRb); test: Alamar blue assay, H1703 SRb; conditions: Homo sapiens, NCI-H1703, read-out: Sunitinib IC50(μM), Example 3, mean of three experiments
Experimental: (§3) GraphPad Prism 4.01 was used to calculate IC50 values. […] GenoSensor GenoExplorer™ microRNA Expression System (Sanger miRNA Registry version 14 containing probes for 904 mature miRNAs and 450 pre-miRNAs) was used to screen miR expression. Differences in miRs expression between the parent and resistant cells were identified using at test with Benjamini-Hochberg correction and validated by qPCR. A score was calculated for each miRNA to determine whether a miRNA can predict SR.

[3] = test system: H1703 Sunitinib resistant line A (H1703 SRa); test: Alamar blue assay, H1703 SRa; conditions: Homo sapiens, NCI-H1703, read-out: Sunitinib IC50(μM), Example 3, mean of three experiments
Experimental: as §3

[4] = NCI-H358, H358, AlamarBlue proliferation, 72 hours, read-out: IC50
[5] = A549, AlamarBlue proliferation, 72 hours, read-out: IC50
[6] = NCI-H520, H520, AlamarBlue proliferation, 72 hours, read-out: IC50
[7] = NCI-H2122, H2122, AlamarBlue proliferation, 72 hours, read-out: IC50
[8] = range across resistant NSCLC lines, 72 hours
[9] = NCI-H460, H460, AlamarBlue proliferation, 72 hours, read-out: IC50
[10] = NCI-H1703, H1703, AlamarBlue proliferation, 72 hours, read-out: IC50

Row | IC50 (H358 NSCLC cell line; [4]) | IC50 (A549 NSCLC cell line; [5]) | IC50 (H520 NSCLC cell line; [6]) | IC50 (HCC827 NSCLC cell line) | IC50 (H2122 NSCLC cell line; [7]) | IC50 (H460 NSCLC cell line; [9]) | IC50 (H1703 NSCLC cell line; [10]) | IC50 (H358 NSCLC cell line; NCI-H358, read-out: Sunitinib IC50(μM), H358, Example 3, mean of three experiments) | IC50 (A549 NSCLC cell line; read-out: Sunitinib IC50(μM), A549, Example 3, mean of three experiments) | IC50 (H520 NSCLC cell line; NCI-H520, read-out: Sunitinib IC50(μM), H520, Example 3, mean of three experiments) | IC50 [2] | IC50 (H2122 NSCLC cell line; NCI-H2122, read-out: Sunitinib IC50(μM), H2122, Example 3, mean of three experiments) | IC50 (H460 NSCLC cell line; NCI-H460, read-out: Sunitinib IC50(μM), H460, Example 3, mean of three experiments) | IC50 [3] | IC50 (H1703 NSCLC cell line; NCI-H1703, read-out: Sunitinib IC50(μM), H1703 control, Example 3, mean of three experiments) | Structure (SMILES) | IC50 [1, 8] | IC50 (HCC4006 NSCLC cell line) | IC50 (H2073 NSCLC cell line) | IC50 ([1]; 72 h)
1 | 4.2 µM | 9.7 µM | 12.1 µM | 0.55 µM | 5.9 µM | 13.9 µM | 2.1 µM |  |  |  |  |  |  |  |  | COc1cc2c(Nc3ccc(Br)cc3F)ncnc2cc1OCC1CCN(C)CC1 [Vandetanib] | 2.1 to 13.9 µM |  |  | 
2 | 14.2 µM | 5.5 µM | 8.2 µM |  | 4.8 µM | 5.6 µM | 0.51 µM | 14.2 µM | 5.5 µM | 8.2 µM | 4.37 µM | 4.8 µM | 5.6 µM | 7.6 µM | 0.13 µM | CCN(CC)CCNC(=O)c1c(C)[nH]c(/C=C2\C(=O)Nc3ccc(F)cc32)c1C [Sunitinib, N-[2-(diethylamino)ethyl]-5-[(Z)-(5-fluoro-1,2-dihydro-2-oxo-3H-indol-3-ylidine)methyl]-2,4-dimethyl-1H-pyrrole-3-carboxamide] | 4.8 to 14.2 µM |  |  | 

Row | Structure (SMILES) | IC50 (H358 NSCLC cell line; [4]) | IC50 (A549 NSCLC cell line; [5]) | IC50 (H520 NSCLC cell line; [6]) | IC50 (HCC827 NSCLC cell line) | IC50 (H2122 NSCLC cell line; [7]) | IC50 (H460 NSCLC cell line; [9]) | IC50 (H1703 NSCLC cell line; [10]) | IC50 (H358 NSCLC cell line; NCI-H358, read-out: Sunitinib IC50(μM), H358, Example 3, mean of three experiments) | IC50 (A549 NSCLC cell line; read-out: Sunitinib IC50(μM), A549, Example 3, mean of three experiments) | IC50 (H520 NSCLC cell line; NCI-H520, read-out: Sunitinib IC50(μM), H520, Example 3, mean of three experiments) | IC50 [2] | IC50 (H2122 NSCLC cell line; NCI-H2122, read-out: Sunitinib IC50(μM), H2122, Example 3, mean of three experiments) | IC50 (H460 NSCLC cell line; NCI-H460, read-out: Sunitinib IC50(μM), H460, Example 3, mean of three experiments) | IC50 [3] | IC50 (H1703 NSCLC cell line; NCI-H1703, read-out: Sunitinib IC50(μM), H1703 control, Example 3, mean of three experiments) | IC50 [1, 8] | IC50 (HCC4006 NSCLC cell line) | IC50 (H2073 NSCLC cell line) | IC50 ([1]; 72 h)
3 | C#Cc1cccc(Nc2ncnc3cc(OCCOC)c(OCCOC)cc23)c1 [Erlotinib, N-(3-ethynylphenyl)-6,7-bis(2-methoxyethoxy)quinazolin-4-amine] | 28.6 µM | > 50 µM | > 50 µM |  | 12.3 µM | 39.2 µM | > 50 µM |  |  |  |  |  |  |  |  |  | 0.02 µM | 9.7 µM | ≥ 9.7 µM
